Measured values taken from ChEMBL document CHEMBL3286182, “4-aminoquinolone piperidine amides: noncovalent inhibitors of DprE1 with long residence time and potent antimycobacterial activity” (J Med Chem, 2014).
Converted amounts (≈) assume the structure as drawn.

What was measured:
Type in all cases: functional
[1] = test system: Mycobacterium tuberculosis; assay: Antimycobacterial activity against moxifloxacin-resistant Mycobacterium tuberculosis clone 4.1 over expressing DprE1 mutant after 5 days by standard microdilution method
[2] = test system: Mycobacterium tuberculosis; assay: Antimycobacterial activity against Mycobacterium tuberculosis over expressing DprE1 Y314H mutant after 5 days by standard microdilution method
[3] = test system: Mycobacterium tuberculosis; assay: Antimycobacterial activity against TMC207R-resistant Mycobacterium tuberculosis clone 8.1 over expressing DprE1 mutant after 5 days by standard microdilution method
[4] = test system: Mycobacterium tuberculosis; assay: Antimycobacterial activity against BTZ043-resistant Mycobacterium tuberculosis over expressing DprE1 C387S mutant after 5 days by standard microdilution method

Structure (SMILES)	MIC [1]	MIC [2]	MIC [3]	MIC [4]
Cn1ncc(C(=O)N2CCC(Nc3cc(=O)[nH]c4ccccc34)CC2)c1Cl	1.6 µM (≈ 0.617 µg/mL)	100 µM (≈ 38.6 µg/mL)	3.1 µM (≈ 1.2 µg/mL)	100 µM (≈ 38.6 µg/mL)
Cn1ncc(C(=O)N2CCC(Nc3cc(=O)[nH]c4ccc(F)cc34)CC2)c1Cl	1.6 µM (≈ 0.646 µg/mL)	25 µM (≈ 10.1 µg/mL)	1.6 µM (≈ 0.646 µg/mL)	25 µM (≈ 10.1 µg/mL)
Cn1ncc(C(=O)N2CCC(Nc3cc(=O)[nH]c4cc(F)c(F)cc34)CC2)c1Cl	0.2 µM (≈ 0.0844 µg/mL)	50 µM (≈ 21.1 µg/mL)	0.2 µM (≈ 0.0844 µg/mL)	3.12 µM (≈ 1.32 µg/mL)
Cn1ncc(C(=O)N2[C@@H]3CC[C@H]2C[C@@H](Nc2cc(=O)[nH]c4ccc(F)cc24)C3)c1Cl	–	<0.39 µM	–	1.56 µM (≈ 0.671 µg/mL)
Cc1onc(C(=O)N2CCC(Nc3cc(=O)n(C)c4cc(F)c(F)cc34)CC2)c1C	–	<25 µM	–	6.25 µM (≈ 2.6 µg/mL)
C[C@H]1C[C@H](Nc2cc(=O)[nH]c3cc(F)c(F)cc23)CCN1C(=O)c1cnn(C)c1Cl	–	0.78 µM (≈ 0.34 µg/mL)	–	6.25 µM (≈ 2.72 µg/mL)
COc1nc2ccc(Br)cc2cc1[C@@H](c1ccccc1)[C@@](O)(CCN(C)C)c1cccc2ccccc12 [BEDAQUILINE]	1.6 µM (≈ 0.889 µg/mL)	–	50 µM (≈ 27.8 µg/mL)	0.4 µM (≈ 0.222 µg/mL)
C[C@H]1COC2(CCN(c3nc(=O)c4cc(C(F)(F)F)cc([N+](=O)[O-])c4s3)CC2)O1 [BTZ-043]	0.003 µM (≈ 0.00129 µg/mL)	–	0.002 µM (≈ 0.000863 µg/mL)	25 µM (≈ 10.8 µg/mL)
NNC(=O)c1ccncc1 [ISONIAZID]	0.45 µM (≈ 0.0617 µg/mL)	–	0.23 µM (≈ 0.0315 µg/mL)	0.45 µM (≈ 0.0617 µg/mL)
COc1c(N2C[C@@H]3CCCN[C@@H]3C2)c(F)cc2c(=O)c(C(=O)O)cn(C3CC3)c12 [MOXIFLOXACIN]	–	–	–	0.08 µM (≈ 0.0321 µg/mL)
